Where a name gives a salt, the structure may show the parent alone.
Assays:
Format in all cases: in vivo
mice = assay: Tail-flick test (radiant heat)
Procedure: Radiant heat was applied using a beam of high-intensity light focused on a tail spot. The response time, defined as the interval between the onset of the stimulus and the tail flick, was measured electronically(to the nearest 0.1 second). The beam intensity was set at a level giving a mean control reaction time of 3.8±0.4 seconds. […] The percentage of inhibition was determined by the following equation: Inhibition(%) =(Reaction time of the treated group - Reaction time of the control group)/(Reaction time of the control group)x 100 [formula]

KTC-ICR mice [1] = assay: acetic acid induced writhing test; details: Mus musculus; oral; 0.9% acetic acid i.p. 60 minutes later; writhings during 10 minutes; mice 20 to 25g; Examples 1 to 32
Procedure: (§1) The KTC-ICR mice derived from Charles River Breeding Laboratory in the United States and provided by Experimental Animal Laboratory of Korea Research Institute of Chemical Technology were used as test animals. […] They were tested after having been adjusted to the testing environment for a week. Food and water were given freely; and illumination was maintained on a 12-hour cycle.
(§2) Experiments were performed in two ways: that is, the acetic acid induced writhing test and the phenyl-1,4-benzoquinone(PBQ) induced writhing test.
Solutions for the acetic acid induced writhing test were prepared by dissolving one of the end products prepared in Examples […] in a saline solution containing 1% by weight of Tween 80 to have a concentration of 5mg/mℓ and diluting it serially with the saline solution. The test solutions were administered orally in a dose of 0.3mℓ per 30g of body weight, using the 5 ICR mice for each test. 60 minutes later, 0.9% acetic acid solution was administered intraperitoneally in a dose of 0.1mℓ per 30g of body weight. 3 minutes thereafter, the number of writhings generated during a period of 10 minutes due to the administration of acetic acid was measured. For comparison purpose, initially, saline solution alone was administered orally to the control group. 60 minutes thereafter, 0.9% acetic acid solution was administered intraperitoneally to the control group.
(§3) The number of writhings suffered by the test group was compared with that of the control group; and the analgesic effect was measured in terms of the percentage of inhibition of writhing(I. W.). I. W. (%) =(A - B)/(A)x 100 [formula] A : the number of writhings suffered by the control group, B : the number of writhings suffered by the test group.
(§4) These ED50 values for the test compounds are shown in the last column of Table 1.

KTC-ICR mice [2] = assay: phenyl-1,4-benzoquinone(PBQ) induced writhing test; details: Mus musculus; oral; 0.02% PBQ i.p. 60 minutes later; writhings during 5 minutes; mice 10 to 15g; Examples 33 to 46
Procedure: as §1, §2
Alternatively, solutions for the PBQ induced writhing test were prepared by dissolving one of the products synthesized in Examples 33 to 46 in a mixture of Tween 80, alcohol and distilled water (1:5:94); and administered orally to the 5 ICR mice for each test in a dose of 0.3mℓ per 30g of body weight. 60 minutes later, 0.02% PBQ solution was administered intraperitoneally in a dose of 0.1mℓ per 30g of body weight of the test animals. 5 minutes thereafter, at the temperature of 40°C, the number of writhings occurred during a period of 5 minutes due to the PBQ solution administered was measured. For comparison, only the mixture of Tween 80, alcohol and distilled water was administered orally to the control group; and, after 60 minutes, the PBQ solution was administered intraperitoneally to the control group in the same manner as mentioned above.
as §3, §4

test animals = assay: Behavior analysis (side-effect or toxicity scores); parameters: key to Sedation / Dyspnoea / Vasodilation / Convulsion / Salivation / Urination: behavior score; higher number = greater side effects; details: behavior score; for Convulsion / Salivation / Urination: normal value 0; for Dyspnoea / Ptosis / Sedation / Vasodilation: normal value 4
Excerpt: In order to monitor a harmful side-effect or toxicity of the compounds having the formula(I), various behavioral changes in the test animals were observed. […] The higher the number is, the greater the side effects are.

With `COc1cc(CNC(=O)CCCC/C=C/C(C)C)ccc1O` [Capsaicin, trans-8-methyl-N-vanillyl-6-nonenamide, reference compound] the “Inhibition(%)” value (mice; mouse, in vivo, 25 mg/kg) was 90%.
With `COc1cc(CC(=O)NCCCc2ccc(C)c(C)c2)ccc1OCCN` [Example 1-l-tartarate] the “Inhibition(%)” value (mice; p. o., dose 1.25 mg/Kg) was 50% and the “Inhibition(%)” value (mice; p. o., dose 2.5 mg/Kg) was 90%.
Molecule `Cc1ccc(CCCNC(=O)Cc2ccc(OCCN)cc2)cc1C` [Example 2] has an ED50 (KTC-ICR mice [1]) of 3.98 mg/kg.
In the case of `Cc1ccc(CCCNC(=O)Cc2ccc(OCCN)c(F)c2)cc1C` [Example 3], the ED50 (KTC-ICR mice [1]) is reported as 2.95 mg/kg.
For `Cc1ccc(CCCNC(=O)Cc2ccc(OCCN)c(Cl)c2)cc1C` [Example 4], the ED50 (KTC-ICR mice [1]) was 4.78 mg/kg.
In the case of `Cc1cccc(CCCNC(=O)Cc2ccc(OCCN)cc2)c1` [Example 6], the ED50 (KTC-ICR mice [1]) is reported as 26.3 mg/kg.
With `Cc1cccc(CCCNC(=O)Cc2ccc(OCCN)c(F)c2)c1` [Example 7] the ED50 (KTC-ICR mice [1]) was 2.3 mg/kg.
For `Cc1cccc(CCCNC(=O)Cc2ccc(OCCN)c(Cl)c2)c1` [Example 8], the ED50 (KTC-ICR mice [1]) was 42.6 mg/kg.
`COc1cc(CC(=O)NCCCc2ccc(C)cc2)ccc1OCCN` [Example 9] gave an ED50 (KTC-ICR mice [1]) of 1.73 mg/kg.
Molecule `Cc1ccc(CCCNC(=O)Cc2ccc(OCCN)cc2)cc1` [Example 10] has an ED50 (KTC-ICR mice [1]) of 7.9 mg/kg.
In the case of `Cc1ccc(CCCNC(=O)Cc2ccc(OCCN)c(Cl)c2)cc1` [Example 12], the ED50 (KTC-ICR mice [1]) is reported as 4.7 mg/kg.
`COc1cc(CC(=O)NCCCc2cc(C)cc(C)c2)ccc1OCCN` [Example 13] gave an ED50 (KTC-ICR mice [1]) of 4.6 mg/kg.
Work on `Cc1cc(C)cc(CCCNC(=O)Cc2ccc(OCCN)cc2)c1` [Example 14] yielded an ED50 (KTC-ICR mice [1]) of 3.16 mg/kg.
With `Cc1cc(C)cc(CCCNC(=O)Cc2ccc(OCCN)c(Cl)c2)c1` [Example 16] the ED50 (KTC-ICR mice [1]) was 123 mg/kg.
`COc1cc(CC(=O)NCCc2cc(C)cc(C)c2)ccc1OCCN` [Example 17] gave an ED50 (KTC-ICR mice [1]) of 0.77 mg/kg.
With `COc1cc(CC(=O)NCCCc2ccc(Cl)cc2)ccc1OCCN` [Example 18, N-{3-(4-chlorophenyl)propyl}-4-(2-aminoethoxy)-3-methoxyphenylacetamide] the ED50 (KTC-ICR mice [1]) was 0.4 mg/kg.
With `NCCOc1ccc(CC(=O)NCCCc2ccc(Cl)cc2)cc1` [Example 19, N-{3-(4-chlorophenyl)propyl}-4-(2-aminoethoxy)phenylacetamide] the ED50 (KTC-ICR mice [1]) was 0.03 mg/kg.
In the case of `NCCOc1ccc(CC(=O)NCCCc2ccc(Cl)cc2)cc1F` [Example 20, N-{3-(4-chlorophenyl)propyl}-4-(2-aminoethoxy)-3-fluorophenylacetamide], the ED50 (KTC-ICR mice [1]) is reported as 0.07 mg/kg.
`NCCOc1ccc(CC(=O)NCCCc2ccc(Cl)cc2)cc1Cl` [Example 21, N-{3-(4-chlorophenyl)propyl}-4-(2-aminoethoxy)-3-chlorophenylacetamide] gave an ED50 (KTC-ICR mice [1]) of 0.04 mg/kg.
In the case of `COc1cc(CC(=O)NCCCc2ccc(Cl)c(Cl)c2)ccc1OCCN` [Example 24, N-{3-(3,4-dichlorophenyl)propyl}-4-(2-aminoethoxy)-3-methoxyphenylacetamide], the ED50 (KTC-ICR mice [1]) is reported as 0.66 mg/kg.
`COc1cc(CC(=O)NCCCc2ccc3c(c2)OCO3)ccc1OCCN` [Example 25, N-{3-(3,4-methylenedioxyphenyl)propyl}-4-(2-aminoethoxy)-3-methoxyphenylacetamide] showed an ED50 (KTC-ICR mice [1]) of 0.8 mg/kg.
For `COc1cc(CC(=O)NCCCc2cccc(C(F)(F)F)c2)ccc1OCCN` [Example 26, N-{3-(3-trifluoromethylphenyl)propyl}-4-(2-aminoethoxy)-3-methoxyphenylacetamide], the ED50 (KTC-ICR mice [1]) was 1.54 mg/kg.
In the case of `COc1cccc(CCCNC(=O)Cc2ccc(OCCN)c(OC)c2)c1` [Example 27, N-{3-(3-methoxyphenyl)propyl}-4-(2-aminoethoxy)-3-methoxyphenylacetamide], the ED50 (KTC-ICR mice [1]) is reported as 1.25 mg/kg.
`COc1cc(CC(=O)NCCCc2cccc(OCc3ccccc3)c2)ccc1OCCN` [Example 28, N-{3-(3-benzyloxyphenyl)propyl}-4-(2-aminoethoxy)-3-methoxyphenylacetamide] showed an ED50 (KTC-ICR mice [1]) of 28.8 mg/kg.
`COc1cc(CC(=O)NCCCCc2cccc(C)c2)ccc1OCCN` [Example 30] was tested, and the ED50 (KTC-ICR mice [1]) was 1.54 mg/kg.
For `Cc1cccc(CCCCNC(=O)Cc2ccc(OCCN)cc2)c1` [Example 31], the ED50 (KTC-ICR mice [1]) was 3.3 mg/kg.
`Cc1ccc(CCCCNC(=O)Cc2ccc(OCCN)c(F)c2)cc1C` [Example 32] gave an ED50 (KTC-ICR mice [1]) of 1.44 mg/kg.
`Cc1ccc(CCCNC(=O)Cc2ccc(OCCN)c(O)c2)cc1C` [Example 33, N-{3-(3,4-dimethylphenyl)propyl}-4-(2-aminoethoxy)-3-hydroxyphenylacetamide] gave an ED50 (KTC-ICR mice [2]) of 0.49 mg/kg, a Convulsion (test animals; dose 0.2mg/Kg) of 0 and a Salivation (test animals; dose 0.2mg/Kg) of 0. The Urination (test animals; dose 0.2mg/Kg) was 0, the Dyspnoea (test animals; dose 0.2mg/Kg) was 4 and the Ptosis (test animals; dose 0.2mg/Kg) was 4. It also gave a Sedation (test animals; dose 0.2mg/Kg) of 4, a Vasodilation (test animals; dose 0.2mg/Kg) of 4 and a Convulsion (test animals; dose 0.6mg/Kg) of 0. For the same molecule, the Salivation (test animals; dose 0.6mg/Kg) was 0, the Urination (test animals; dose 0.6mg/Kg) was 0 and the Dyspnoea (test animals; dose 0.6mg/Kg) was 4. It also gave a Ptosis (test animals; dose 0.6mg/Kg) of 4, a Sedation (test animals; dose 0.6mg/Kg) of 5 and a Vasodilation (test animals; dose 0.6mg/Kg) of 4. The Convulsion (test animals; dose 2.0mg/Kg) was 0, the Salivation (test animals; dose 2.0mg/Kg) was 0 and the Urination (test animals; dose 2.0mg/Kg) was 0. It also gave a Dyspnoea (test animals; dose 2.0mg/Kg) of 5, a Ptosis (test animals; dose 2.0mg/Kg) of 6 and a Sedation (test animals; dose 2.0mg/Kg) of 7. The Vasodilation (test animals; dose 2.0mg/Kg) was 4.
`Cc1ccc(CCCNC(=O)Cc2ccc(OCCN)c(N)c2)cc1C` [Example 37, N-{3-(3,4-dimethylphenyl)propyl}-4-(2-aminoethoxy)-3-aminophenylacetamide] showed an ED50 (KTC-ICR mice [2]) of 22.7 mg/kg, a Convulsion (test animals; dose 6.7mg/Kg) of 0 and a Salivation (test animals; dose 6.7mg/Kg) of 0. It also gave a Urination (test animals; dose 6.7mg/Kg) of 0, a Dyspnoea (test animals; dose 6.7mg/Kg) of 4 and a Ptosis (test animals; dose 6.7mg/Kg) of 4. The Sedation (test animals; dose 6.7mg/Kg) was 4, the Vasodilation (test animals; dose 6.7mg/Kg) was 4 and the Convulsion (test animals; dose 20mg/Kg) was 0. For the same molecule, the Salivation (test animals; dose 20mg/Kg) was 0, the Urination (test animals; dose 20mg/Kg) was 0 and the Dyspnoea (test animals; dose 20mg/Kg) was 4. For the same molecule, the Ptosis (test animals; dose 20mg/Kg) was 5, the Sedation (test animals; dose 20mg/Kg) was 4 and the Vasodilation (test animals; dose 20mg/Kg) was 4. It also gave a Convulsion (test animals; dose 60mg/Kg) of 0, a Salivation (test animals; dose 60mg/Kg) of 0 and a Urination (test animals; dose 60mg/Kg) of 0. The Dyspnoea (test animals; dose 60mg/Kg) was 4, the Ptosis (test animals; dose 60mg/Kg) was 6 and the Sedation (test animals; dose 60mg/Kg) was 6. The Vasodilation (test animals; dose 60mg/Kg) was 4.
In the case of `NCCOc1ccc(CC(=O)NCCCc2ccc(F)cc2)cc1N` [Example 40-HCl], the “Inhibition(%)” value (mice; p. o., dose 50 mg/Kg) is reported as 67%.
`NCCOc1ccc(CC(=O)NCCCc2cccc(C(F)(F)F)c2)cc1N` [Example 42, N-{3-(3-trifluoromethylphenyl)propyl}-4-(2-aminoethoxy)-3-aminophenylacetamide] showed a Convulsion (test animals; dose 11.1mg/Kg) of 0, a Salivation (test animals; dose 11.1mg/Kg) of 0 and a Urination (test animals; dose 11.1mg/Kg) of 0. For the same molecule, the Dyspnoea (test animals; dose 11.1mg/Kg) was 4, the Ptosis (test animals; dose 11.1mg/Kg) was 4 and the Sedation (test animals; dose 11.1mg/Kg) was 4. For the same molecule, the Vasodilation (test animals; dose 11.1mg/Kg) was 4, the Convulsion (test animals; dose 33.3mg/Kg) was 0 and the Salivation (test animals; dose 33.3mg/Kg) was 0. The Urination (test animals; dose 33.3mg/Kg) was 0, the Dyspnoea (test animals; dose 33.3mg/Kg) was 4 and the Ptosis (test animals; dose 33.3mg/Kg) was 4. The Sedation (test animals; dose 33.3mg/Kg) was 4, the Vasodilation (test animals; dose 33.3mg/Kg) was 4 and the Convulsion (test animals; dose 100mg/Kg) was 0. It also gave a Salivation (test animals; dose 100mg/Kg) of 0, a Urination (test animals; dose 100mg/Kg) of 0 and a Dyspnoea (test animals; dose 100mg/Kg) of 4. It also gave a Ptosis (test animals; dose 100mg/Kg) of 7, a Sedation (test animals; dose 100mg/Kg) of 7 and a Vasodilation (test animals; dose 100mg/Kg) of 4. The “Inhibition(%)” value (mice; p. o., dose 100 mg/Kg) was 40%.
Work on `Cc1ccc(CCCNC(=O)Cc2ccc(OCCN)c([N+](=O)[O-])c2)cc1C` [Example 43, N-{3-(3,4-dimethylphenyl)propyl}-4-(2-aminoethoxy)-3-nitrophenylacetamide] yielded an ED50 (KTC-ICR mice [2]) of 22.5 mg/kg.
In the case of `CN1C(C(=O)Nc2ccccn2)=C(O)c2ccccc2S1(=O)=O` [Piroxicam, reference compound], the “Inhibition(%)” value (mice; p. o., dose 100 mg/Kg) is reported as 0%.

From patent EP0525360B1, “Novel phenylacetamide derivatives and processes for the preparation thereof” (KOREA RESEARCH INSTITUTE OF CHEMICAL TECHNOLOGY, priority 1991, dated 1993)
